According to ChEMBL document CHEMBL4118189, “Discovery of novel N-hydroxy-2-arylisoindoline-4-carboxamides as potent and selective inhibitors of HDAC11” (Bioorg Med Chem Lett, 2018):
Values after ≈ are worked out from the molar mass of the structure shown.

Legend:
Histone deacetylase 11 [1] = target: T1, Histone deacetylase 11 (Homo sapiens, UniProt Q96DB2); assay: Inhibition of full length recombinant human HDAC11 expressed in baculoviral expression system using FAM-RHKK as substrate by electrophoretic mobility shift assay
T1 sequence (Q96DB2 whole entry): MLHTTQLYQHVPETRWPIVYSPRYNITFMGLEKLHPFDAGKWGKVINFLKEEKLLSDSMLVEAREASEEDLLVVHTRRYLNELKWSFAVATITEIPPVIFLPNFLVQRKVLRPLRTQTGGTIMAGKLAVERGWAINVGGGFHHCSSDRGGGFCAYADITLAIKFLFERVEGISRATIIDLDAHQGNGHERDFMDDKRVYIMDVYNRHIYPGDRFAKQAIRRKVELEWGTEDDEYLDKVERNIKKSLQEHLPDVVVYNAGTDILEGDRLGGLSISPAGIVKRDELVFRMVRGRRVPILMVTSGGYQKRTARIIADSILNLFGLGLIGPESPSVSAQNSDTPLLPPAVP

[2] = Intrinsic clearance in mouse liver microsomes; assay type: ADME, microsome; conditions: read-out: CLH
[3] = target: T2, Protein deacetylase HDAC6 (Homo sapiens, UniProt Q9UBN7); assay: Inhibition of full length recombinant human HDAC6 using fluorescent-labeled peptide as substrate by electrophoretic mobility shift assay
T2 sequence (Q9UBN7 whole entry): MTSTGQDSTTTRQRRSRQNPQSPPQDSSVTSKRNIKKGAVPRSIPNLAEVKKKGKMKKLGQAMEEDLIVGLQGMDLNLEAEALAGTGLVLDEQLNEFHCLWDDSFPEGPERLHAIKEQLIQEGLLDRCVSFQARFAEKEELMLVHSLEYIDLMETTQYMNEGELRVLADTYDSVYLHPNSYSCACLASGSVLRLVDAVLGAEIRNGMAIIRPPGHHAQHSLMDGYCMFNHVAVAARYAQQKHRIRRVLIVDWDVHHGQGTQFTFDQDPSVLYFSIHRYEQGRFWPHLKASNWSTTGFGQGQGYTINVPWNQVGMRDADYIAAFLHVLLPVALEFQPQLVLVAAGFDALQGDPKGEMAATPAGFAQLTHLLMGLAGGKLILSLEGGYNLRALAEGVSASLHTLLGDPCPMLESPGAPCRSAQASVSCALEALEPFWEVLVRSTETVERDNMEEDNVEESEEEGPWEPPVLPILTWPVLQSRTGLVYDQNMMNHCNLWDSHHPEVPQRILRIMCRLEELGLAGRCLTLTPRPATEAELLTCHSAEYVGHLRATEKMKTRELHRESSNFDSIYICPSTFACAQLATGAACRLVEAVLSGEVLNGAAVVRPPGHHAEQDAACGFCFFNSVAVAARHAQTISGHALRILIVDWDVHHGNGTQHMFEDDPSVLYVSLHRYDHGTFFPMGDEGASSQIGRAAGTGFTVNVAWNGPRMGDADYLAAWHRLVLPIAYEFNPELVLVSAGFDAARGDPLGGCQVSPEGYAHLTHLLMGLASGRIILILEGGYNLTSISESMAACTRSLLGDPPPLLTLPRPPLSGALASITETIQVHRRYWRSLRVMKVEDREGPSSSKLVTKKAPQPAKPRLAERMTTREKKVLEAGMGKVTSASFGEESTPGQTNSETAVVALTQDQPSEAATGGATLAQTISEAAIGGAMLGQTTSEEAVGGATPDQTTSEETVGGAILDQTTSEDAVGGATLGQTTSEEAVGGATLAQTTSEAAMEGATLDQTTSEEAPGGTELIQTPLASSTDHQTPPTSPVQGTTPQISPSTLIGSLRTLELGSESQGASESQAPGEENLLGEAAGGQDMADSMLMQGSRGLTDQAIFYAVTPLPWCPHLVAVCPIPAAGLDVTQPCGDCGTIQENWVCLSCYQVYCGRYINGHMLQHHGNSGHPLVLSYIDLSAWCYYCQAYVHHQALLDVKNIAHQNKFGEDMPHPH

[4] = Kinetic solubility of the compound at pH 7.4; assay type: physicochemical; conditions: buffer, read-out: Kinetic_solubility
Histone deacetylase 11 [5] = target: T1, Histone deacetylase 11; assay: Inhibition of NanoLuc-tagged HDAC11 (unknown origin) by BRET assay
[6] = Permeability of the compound by PAMPA; assay type: ADME; conditions: read-out: permeability
Histone deacetylase 1 = Histone deacetylase 1 (Homo sapiens, UniProt Q13547); assay: Inhibition of full length recombinant human HDAC1 using fluorescent-labeled peptide as substrate by electrophoretic mobility shift assay
Histone deacetylase 2 = Histone deacetylase 2 (Homo sapiens, UniProt Q92769); assay: Inhibition of full length recombinant human HDAC2 using fluorescent-labeled peptide as substrate by electrophoretic mobility shift assay
Histone deacetylase 3 = Histone deacetylase 3 (Homo sapiens, UniProt O15379); assay: Inhibition of full length recombinant human HDAC3 using fluorescent-labeled peptide as substrate by electrophoretic mobility shift assay
Histone deacetylase 5 = Histone deacetylase 5 (Homo sapiens, UniProt Q9UQL6); assay: Inhibition of full length recombinant human HDAC5 using fluorescent-labeled peptide as substrate by electrophoretic mobility shift assay
Histone deacetylase 7 = target: T3, Histone deacetylase 7 (Homo sapiens, UniProt Q8WUI4); assay: Inhibition of full length recombinant human HDAC7 using fluorescent-labeled peptide as substrate by electrophoretic mobility shift assay
T3 sequence (Q8WUI4 whole entry): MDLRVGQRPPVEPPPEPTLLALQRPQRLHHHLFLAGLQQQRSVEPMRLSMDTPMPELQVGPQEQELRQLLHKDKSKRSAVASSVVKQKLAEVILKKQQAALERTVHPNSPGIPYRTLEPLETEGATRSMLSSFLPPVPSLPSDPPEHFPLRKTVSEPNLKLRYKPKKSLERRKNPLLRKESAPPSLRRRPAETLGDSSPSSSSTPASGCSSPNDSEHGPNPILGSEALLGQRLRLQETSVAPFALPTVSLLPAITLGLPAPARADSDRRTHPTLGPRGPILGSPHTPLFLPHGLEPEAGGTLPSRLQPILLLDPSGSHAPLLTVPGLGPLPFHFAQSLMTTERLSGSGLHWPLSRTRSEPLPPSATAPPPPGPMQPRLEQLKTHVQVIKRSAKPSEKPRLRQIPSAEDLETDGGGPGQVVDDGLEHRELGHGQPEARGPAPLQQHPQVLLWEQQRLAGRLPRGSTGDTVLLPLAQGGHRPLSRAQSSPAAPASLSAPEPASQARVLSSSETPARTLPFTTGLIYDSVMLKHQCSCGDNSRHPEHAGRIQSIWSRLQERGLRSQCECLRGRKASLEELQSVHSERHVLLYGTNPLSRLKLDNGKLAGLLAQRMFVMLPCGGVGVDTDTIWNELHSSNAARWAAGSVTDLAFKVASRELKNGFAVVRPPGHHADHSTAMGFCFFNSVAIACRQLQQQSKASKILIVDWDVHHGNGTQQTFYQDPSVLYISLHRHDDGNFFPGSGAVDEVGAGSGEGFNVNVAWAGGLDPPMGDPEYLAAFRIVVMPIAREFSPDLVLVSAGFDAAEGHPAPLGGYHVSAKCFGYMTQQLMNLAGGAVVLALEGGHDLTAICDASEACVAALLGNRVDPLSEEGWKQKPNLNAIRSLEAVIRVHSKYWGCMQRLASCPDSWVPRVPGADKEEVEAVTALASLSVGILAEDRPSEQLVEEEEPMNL

Histone deacetylase 9 = Histone deacetylase 9 (Homo sapiens, UniProt Q9UKV0); assay: Inhibition of full length recombinant human HDAC9 using fluorescent-labeled peptide as substrate by electrophoretic mobility shift assay
[7] = target: T4, Polyamine deacetylase HDAC10 (Homo sapiens, UniProt Q969S8); assay: Inhibition of full length recombinant human HDAC10 using fluorescent-labeled peptide as substrate by electrophoretic mobility shift assay
T4 sequence (Q969S8 whole entry): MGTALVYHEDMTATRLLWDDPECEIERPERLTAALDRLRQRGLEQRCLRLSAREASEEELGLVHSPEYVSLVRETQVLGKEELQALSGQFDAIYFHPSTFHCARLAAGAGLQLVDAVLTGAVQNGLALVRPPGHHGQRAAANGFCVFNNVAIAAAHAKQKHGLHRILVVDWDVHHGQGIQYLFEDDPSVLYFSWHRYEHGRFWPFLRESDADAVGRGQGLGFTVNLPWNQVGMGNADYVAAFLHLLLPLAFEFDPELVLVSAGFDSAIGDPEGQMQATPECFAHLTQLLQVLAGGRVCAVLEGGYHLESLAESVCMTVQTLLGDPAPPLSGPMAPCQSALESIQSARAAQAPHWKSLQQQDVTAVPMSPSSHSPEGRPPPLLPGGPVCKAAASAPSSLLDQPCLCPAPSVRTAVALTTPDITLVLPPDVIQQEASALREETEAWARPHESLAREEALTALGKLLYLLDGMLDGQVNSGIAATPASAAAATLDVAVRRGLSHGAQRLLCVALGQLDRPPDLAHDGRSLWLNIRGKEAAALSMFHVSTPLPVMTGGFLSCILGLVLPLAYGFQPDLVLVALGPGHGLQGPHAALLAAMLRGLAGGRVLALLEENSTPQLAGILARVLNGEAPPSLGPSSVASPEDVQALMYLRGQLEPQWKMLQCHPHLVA

[8] = Half life in Balb/c nude mouse at 5 mg/kg, ip; assay type: ADME, organism-based; conditions: in vivo
[9] = Cmax in Balb/c nude mouse at 5 mg/kg, ip; assay type: ADME, organism-based; set-up: dose 5 mg/kg, route intraperitoneal; conditions: in vivo
[10] = AUClast in Balb/c nude mouse at 5 mg/kg, ip; assay type: ADME, organism-based; set-up: dose 5 mg/kg, time 0 - last, route intraperitoneal; conditions: in vivo
[11] = Bioavailability in Balb/c nude mouse at 5 mg/kg, ip; assay type: ADME, organism-based; conditions: in vivo
[12] = Half life in Balb/c nude mouse at 1 mg/kg, iv; assay type: ADME, organism-based; conditions: in vivo
[13] = Initial plasma concentration in Balb/c nude mouse at 1 mg/kg, iv; assay type: ADME, organism-based
[14] = AUClast in Balb/c nude mouse at 1 mg/kg, iv; assay type: ADME, organism-based; set-up: dose 1 mg/kg, time 0 - last, route intravenous; conditions: in vivo
[15] = Volume of distribution at steady state in Balb/c nude mouse at 1 mg/kg, iv; assay type: ADME, organism-based; conditions: in vivo, read-out: Vdss
[16] = Clearance in Balb/c nude mouse at 1 mg/kg, iv; assay type: ADME, organism-based; conditions: in vivo

Histone deacetylase 3, sequence (O15379 whole entry): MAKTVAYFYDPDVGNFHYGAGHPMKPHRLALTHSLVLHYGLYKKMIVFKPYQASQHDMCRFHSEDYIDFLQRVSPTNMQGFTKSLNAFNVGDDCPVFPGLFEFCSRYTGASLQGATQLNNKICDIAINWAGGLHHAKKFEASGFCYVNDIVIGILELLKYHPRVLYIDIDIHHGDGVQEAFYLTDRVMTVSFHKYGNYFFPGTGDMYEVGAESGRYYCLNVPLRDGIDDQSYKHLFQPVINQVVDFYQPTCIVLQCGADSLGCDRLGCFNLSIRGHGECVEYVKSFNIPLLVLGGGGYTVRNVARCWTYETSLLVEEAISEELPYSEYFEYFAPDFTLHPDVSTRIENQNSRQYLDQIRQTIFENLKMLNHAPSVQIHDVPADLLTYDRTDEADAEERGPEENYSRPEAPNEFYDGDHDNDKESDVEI
Histone deacetylase 2, sequence (Q92769 whole entry): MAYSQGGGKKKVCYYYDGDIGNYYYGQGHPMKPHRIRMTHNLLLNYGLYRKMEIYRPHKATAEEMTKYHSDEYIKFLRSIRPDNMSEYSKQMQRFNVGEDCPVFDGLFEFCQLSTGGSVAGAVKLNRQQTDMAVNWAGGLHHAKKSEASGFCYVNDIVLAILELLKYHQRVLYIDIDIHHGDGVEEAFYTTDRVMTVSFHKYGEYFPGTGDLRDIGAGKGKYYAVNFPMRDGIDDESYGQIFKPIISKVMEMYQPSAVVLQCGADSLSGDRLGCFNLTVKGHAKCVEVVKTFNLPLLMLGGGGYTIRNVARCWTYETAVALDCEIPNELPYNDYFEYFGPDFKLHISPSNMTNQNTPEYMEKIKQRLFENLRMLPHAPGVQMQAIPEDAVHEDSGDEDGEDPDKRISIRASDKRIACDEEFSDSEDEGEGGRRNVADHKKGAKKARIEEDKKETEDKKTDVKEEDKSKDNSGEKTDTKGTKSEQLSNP
Histone deacetylase 9, sequence (Q9UKV0 whole entry): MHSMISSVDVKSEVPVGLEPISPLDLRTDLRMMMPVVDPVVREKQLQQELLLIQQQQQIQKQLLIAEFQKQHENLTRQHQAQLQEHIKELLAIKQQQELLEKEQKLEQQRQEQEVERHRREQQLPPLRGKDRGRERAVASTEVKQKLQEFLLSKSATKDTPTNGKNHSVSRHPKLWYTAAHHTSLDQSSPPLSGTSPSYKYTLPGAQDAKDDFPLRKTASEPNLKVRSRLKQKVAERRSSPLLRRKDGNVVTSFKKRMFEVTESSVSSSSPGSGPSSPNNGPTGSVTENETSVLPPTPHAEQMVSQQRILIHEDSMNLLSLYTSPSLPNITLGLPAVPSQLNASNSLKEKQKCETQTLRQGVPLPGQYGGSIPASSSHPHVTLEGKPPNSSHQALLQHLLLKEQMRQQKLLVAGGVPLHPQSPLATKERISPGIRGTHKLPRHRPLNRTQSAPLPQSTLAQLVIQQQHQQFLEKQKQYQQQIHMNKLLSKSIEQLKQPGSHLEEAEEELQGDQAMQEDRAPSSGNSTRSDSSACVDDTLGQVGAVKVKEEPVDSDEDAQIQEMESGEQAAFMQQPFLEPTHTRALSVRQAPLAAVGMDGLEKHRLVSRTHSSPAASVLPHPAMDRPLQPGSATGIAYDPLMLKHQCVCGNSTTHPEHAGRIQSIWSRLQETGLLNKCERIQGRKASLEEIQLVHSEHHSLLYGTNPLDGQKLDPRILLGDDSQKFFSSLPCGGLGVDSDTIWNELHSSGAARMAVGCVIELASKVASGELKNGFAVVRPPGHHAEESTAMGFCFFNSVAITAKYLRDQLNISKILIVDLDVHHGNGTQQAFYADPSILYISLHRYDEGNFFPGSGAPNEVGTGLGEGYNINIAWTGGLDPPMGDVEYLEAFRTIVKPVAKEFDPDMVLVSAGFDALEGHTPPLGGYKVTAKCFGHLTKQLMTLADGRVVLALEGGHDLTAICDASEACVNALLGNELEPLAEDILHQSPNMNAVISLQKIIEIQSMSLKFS
Histone deacetylase 1, sequence (Q13547 whole entry): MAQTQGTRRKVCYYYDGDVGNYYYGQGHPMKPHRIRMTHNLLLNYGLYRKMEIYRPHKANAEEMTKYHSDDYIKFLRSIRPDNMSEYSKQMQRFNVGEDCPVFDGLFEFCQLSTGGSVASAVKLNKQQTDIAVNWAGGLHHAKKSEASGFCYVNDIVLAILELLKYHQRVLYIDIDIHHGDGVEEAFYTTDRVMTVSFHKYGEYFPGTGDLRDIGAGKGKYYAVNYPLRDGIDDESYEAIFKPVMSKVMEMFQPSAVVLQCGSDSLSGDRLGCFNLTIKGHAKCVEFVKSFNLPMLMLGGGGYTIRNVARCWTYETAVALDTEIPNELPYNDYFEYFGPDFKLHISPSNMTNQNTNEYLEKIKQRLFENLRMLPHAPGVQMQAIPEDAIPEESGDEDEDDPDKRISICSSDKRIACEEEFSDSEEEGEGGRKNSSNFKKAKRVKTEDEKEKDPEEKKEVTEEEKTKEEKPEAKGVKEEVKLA
Histone deacetylase 5, sequence (Q9UQL6 whole entry): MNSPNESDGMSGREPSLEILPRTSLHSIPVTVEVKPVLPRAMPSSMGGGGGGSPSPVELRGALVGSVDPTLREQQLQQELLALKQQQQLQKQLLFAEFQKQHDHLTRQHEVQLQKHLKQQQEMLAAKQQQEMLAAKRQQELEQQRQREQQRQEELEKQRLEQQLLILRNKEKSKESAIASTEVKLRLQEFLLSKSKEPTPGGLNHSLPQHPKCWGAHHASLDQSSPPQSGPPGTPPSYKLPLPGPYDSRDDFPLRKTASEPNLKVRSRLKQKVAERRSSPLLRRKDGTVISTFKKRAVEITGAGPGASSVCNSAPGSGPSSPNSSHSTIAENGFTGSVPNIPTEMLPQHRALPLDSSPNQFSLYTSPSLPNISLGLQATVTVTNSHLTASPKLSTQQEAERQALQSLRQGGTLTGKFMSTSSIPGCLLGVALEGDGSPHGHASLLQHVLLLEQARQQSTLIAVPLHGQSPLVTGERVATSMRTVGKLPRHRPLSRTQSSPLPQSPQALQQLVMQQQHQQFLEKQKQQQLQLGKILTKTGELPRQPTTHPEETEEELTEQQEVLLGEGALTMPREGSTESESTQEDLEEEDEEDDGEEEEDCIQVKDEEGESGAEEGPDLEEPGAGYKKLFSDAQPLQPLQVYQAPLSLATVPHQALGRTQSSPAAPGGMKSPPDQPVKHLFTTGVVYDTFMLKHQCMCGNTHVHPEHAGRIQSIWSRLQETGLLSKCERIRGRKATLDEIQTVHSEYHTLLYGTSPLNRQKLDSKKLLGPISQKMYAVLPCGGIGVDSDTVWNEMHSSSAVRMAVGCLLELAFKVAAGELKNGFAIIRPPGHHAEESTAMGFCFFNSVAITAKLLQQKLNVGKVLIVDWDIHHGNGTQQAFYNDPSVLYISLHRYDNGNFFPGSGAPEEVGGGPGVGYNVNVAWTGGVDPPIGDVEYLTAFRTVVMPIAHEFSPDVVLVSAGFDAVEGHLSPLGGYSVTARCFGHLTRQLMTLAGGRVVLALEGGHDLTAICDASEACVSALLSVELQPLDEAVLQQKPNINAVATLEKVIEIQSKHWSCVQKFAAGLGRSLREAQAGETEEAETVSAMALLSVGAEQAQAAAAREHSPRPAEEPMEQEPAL

| SMILES | IC50 (Histone deacetylase 11 [1]) [nM] | microsomal CLint [2] [µL/min/mg] | IC50 [3] [nM] | solubility kinetic [4] [µM] | Papp [6] [×10⁻⁶ cm/s] | other results |
| --- | --- | --- | --- | --- | --- | --- |
| O=C(NO)c1cccc2c1CN(C1=NC3CCCCC3N1)C2 (stereo unspecified) | 300 | 317 |  |  |  |  |
| O=C(NO)c1cccc2c1CN(c1nc3ccccc3[nH]1)CC2 | 4600 |  | 82 |  |  |  |
| O=C(NO)c1cccc2c1CN(c1nc3ccccc3s1)C2 | 35 | 323 |  |  |  |  |
| CC1(C)c2cccc(C(=O)NO)c2CN1c1cnc(C(F)(F)F)nc1 | 27 | 7 |  | 82 (≈ 28.9 µg/mL) |  | IC50 (Histone deacetylase 11 [5]): 270 nM |
| CC1(C)c2cccc(C(=O)NO)c2CN1c1cnc(C(F)(F)F)cn1 |  | 22 | > 10000 | 31 (≈ 10.9 µg/mL) | 13 | IC50 (Histone deacetylase 1): > 10 µM; IC50 (Histone deacetylase 2): > 10 µM; IC50 (Histone deacetylase 3): > 10 µM; IC50 (Histone deacetylase 5): > 10 µM; IC50 (Histone deacetylase 7): > 10 µM; IC50 (Histone deacetylase 9): > 10 µM; IC50 [7]: > 10 µM |
| O=C(NO)c1cccc2c1CCN(c1nc3ccccc3[nH]1)C2 | 1200 | < 7 | > 10000 |  |  |  |
| CC1(C)c2cccc(C(=O)NO)c2CN1c1nc2ccc(C(F)(F)F)cc2[nH]1 | 2 | 12 |  | 51 (≈ 19.9 µg/mL) | 0.1 |  |
| O=C(NO)c1cccc2c1CN(c1nc3ccccc3[nH]1)C2 | 170 | 17 | > 10000 |  |  | half-life [8]: 612 min; Cmax [9]: 4.2 µM; AUC(0-t) [10]: 3.8 µM·h; bioavailability [11]: 81% |
| CC1(C)c2cccc(C(=O)NO)c2CN1c1ccc(C(F)(F)F)nc1 | 3 | 12 |  | 51 (≈ 17.9 µg/mL) | 8 | IC50 (Histone deacetylase 11 [5]): 12 nM |
| O=C(NO)c1cccc2c1CN(c1nc3ccc(C(F)(F)F)cc3[nH]1)C2 | 2 | 140 |  |  |  |  |
| Cc1nc(N2Cc3cccc(C(=O)NO)c3C2)[nH]c1C | 2300 | 88 |  |  |  |  |
| CC1(C)c2cccc(C(=O)NO)c2CN1c1ncc(C(F)(F)F)cn1 | 5 | 21 |  | 32 (≈ 11.3 µg/mL) | 18 | IC50 (Histone deacetylase 11 [5]): 85 nM |
| O=C(NO)c1ccc2c(c1)CCN(c1nc3ccccc3[nH]1)C2 | > 10000 |  | 2 |  |  |  |
| CC1(C)c2cccc(C(=O)NO)c2CN1c1nc2ncccc2o1 | 2 | 7 |  | 78 (≈ 25.3 µg/mL) | 0.7 | IC50 (Histone deacetylase 11 [5]): 20 nM |
| O=C(NO)c1cccc2c1CCN(c1nc3ccccc3[nH]1)CC2 | 30 | 161 | 2800 |  |  |  |
| CC1(C)c2cccc(C(=O)NO)c2CN1c1ccc(C(F)(F)F)cn1 | 6 | 28 |  | 8 (≈ 2.81 µg/mL) | 12 | IC50 (Histone deacetylase 11 [5]): 130 nM |
| O=C(NO)c1cccc2c1CN(c1ccc(C(F)(F)F)cn1)C2 | 7 | 81 |  |  |  |  |
| O=C(NO)c1cccc2c1CN(c1ccc3ccccc3n1)C2 | 26 | 92 |  |  |  |  |
| O=C(NO)c1cccc2c1CN(c1nc3ccccc3o1)C2 | 7 | 313 |  |  |  |  |
| O=C(NO)c1ccc2c(c1)CN(c1nc3ccccc3[nH]1)CC2 | 2100 |  | 4 |  |  | half-life [12]: 564 min; C0 [13]: 3.5 µM; AUC(0-t) [14]: 1 µM·h; Vd [15]: 18 L/kg; clearance [16]: 42 mL/min/kg |
| CC1(C)c2cccc(C(=O)NO)c2CN1c1nc2cc(C(F)(F)F)ccc2o1 | 1 | 10 |  | 4 (≈ 1.57 µg/mL) | 7 |  |
